Source: patent US20250332173A1, “COMPOUNDS AND METHODS FOR MODULATING NUCLEIC ACID SPLICING” (REMIX THERAPEUTICS INC., priority 2021, published 2025)
Read-outs that look alike come from different tables or passages of the source.

How the values were obtained:
[1] = tested on: Target C; experiment: HiBiT protein abundance assay, Target C (Promega Nano-Glo HiBiT Lytic Detection System, knock-in K562 cell line); format: cell-based, human; settings: Homo sapiens, K562, 24 h, HiBiT K562 cell line, 24 hours, top dose 10 μM; read-out: Effect on protein abundance, Target C (IC50 category)
Procedure: (§1) • Promega Nano-Glo HiBiT Lytic Detection System (cat #N3030) • Corning 384-well TC-treated microplates (cat #3570) • Synthego Engineered Cells Knock-In Clones
(§2) Cells were maintained in IMDM with 10% FBS. Before the assay, cells were diluted with […] growth media (IMDM+[…] media) and were seeded in a 384-well plate at a density of 10,000 cells/well (for each cell line listed in Table 5). Each compound was prepared as a 10-point 3-fold serial dilution in DMSO with the top dose at a final concentration of 10 μM in the well. Unmodified K562 cells were added at the previously specified density with DMSO to serve as an assay baseline and positive control (PC) and DMSO only with the respective modified cell lines was added to the negative control (NC) columns. Final DMSO concentration was kept at or below 0.25%. Treated cell plates were placed in an incubator at 37° C. with […] for 24 hours. After 24 hours, 25 μL of Complete HiBit Lytic reagent was added to each well at room temperature (e.g. one plate requiring 10 mL Lytic Buffer, 100 μL LgBiT Protein, 200 μL Lytic Substrate), shaken for 5 minutes at 600 RPM, then left to sit for 10 minutes for signal to stabilize before reading on a Spark Cyto plate reader (Tecan) with a 500 ms measurement time.
(§3) To determine compound effects on protein abundance of each target in Table 5, the percent response for each respective cell line was calculated at each compound concentration as follows:
(§4) For the normalized response at each concentration, a four-parameter logistical regression was fit to the data and the response was interpolated at the […] to determine a concentration for protein abundance at […] the untreated control.

[2] = tested on: MYB; experiment: HiBiT protein abundance assay, MYB HiBiT K562 cell line; format: cell-based, human; settings: HiBiT K562 cell line, 24 hours, top dose 10 μM; read-out: Effect on protein abundance, MYB (IC50 category)
Procedure: (§5) Compounds described herein were used to screen for effects on quantitative protein abundance using a HiBit assay system (Promega). Quantitative protein abundance was determined by measuring the protein levels of HiBit-tagged protein targets expressed in cell culture via luminescence using the Nano-Glo HiBiT Lytic Detection System, which uses a split complementation assay format to reconstitute NanoBiT enzyme to generate a luminescent signal. A protein abundance assay was developed such that endogenous protein targets could be modified with the HiBiT peptide tag and their abundance could be assessed after compound treatment. Briefly, K562 cell lines containing a HiBiT-modification were treated with various compounds described herein (e.g., compounds of Formulas (I), (II), (III), (IV), (V), (VI), (VII), (VIII), or (IX)). After treatment for 24 hours, the protein abundance of a specific target was determined by measuring luminescence.
as §1, §2, §3, §4

[3] = tested on: HTT; experiment: HiBiT protein abundance assay, HTT HiBiT K562 cell line; format: cell-based, human; settings: HiBiT K562 cell line, 24 hours, top dose 10 μM; read-out: Effect on protein abundance, HTT (IC50 category)
Procedure: as §5, §1, §2, §3, §4

[4] = tested on: K562 (human chronic myelogenous leukemia) cells; experiment: Cell Titer Glo 2.0 cell viability assay; format: cell-based; settings: Homo sapiens, K562, 72 h, K562 cells, 72 hours, Cell Titer Glo 2.0; read-out: K562 GI50
[5] = tested on: Target C; experiment: RT-qPCR splicing assay panel, Target C canonical junction (CJ) mRNA; format: cell-based, human; settings: Homo sapiens; Table 5 panel; canonical junction qPCR; compound concentration having 50% response in CJ decrease; read-out: Target C IC50 (decrease in CJ mRNA levels)
Method in brief: (§6)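 Canonical-junction transcript levels in compound-treated A673 or K562 cells (24 h, up to 10 uM final) were determined from lysates by RT-qPCR with housekeeping-gene normalization.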

[6] = tested on: MYB mRNA; experiment: RT-qPCR splicing assay, MYB canonical junction (CJ) and alternative junction (AJ) mRNA; format: cell-based, human; settings: Homo sapiens
Method in brief: (§7)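 Read-out is one-step RT-qPCR on cell lysates detecting the exon-exon junction of each isoform, normalized to a housekeeping gene (PPIA in A673, GAPDH or GUSB in K562).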

[7] = tested on: HTT mRNA; experiment: RT-qPCR splicing assay, HTT canonical junction (CJ) and alternative junction (AJ) mRNA; format: cell-based, human; settings: Homo sapiens
Method in brief: as §7

[8] = tested on: SMN2 mRNA; experiment: RT-qPCR splicing assay, SMN2 canonical junction (CJ) mRNA; format: cell-based, human; settings: Homo sapiens; Table 5 panel; canonical junction qPCR; compound concentration having 50% response in CJ decrease; read-out: SMN2 IC50 (decrease in CJ mRNA levels)
Method in brief: as §6

Row | Structure (SMILES) | IC50 [1] [nM] | IC50 [2] [nM] | IC50 [3] [nM] | GI50 [4] [nM] | IC50 [5] [nM] | IC50 ([6]; Table 5 panel, canonical junction qPCR, compound concentration having 50% response in CJ decrease, read-out: MYB IC50 (decrease in CJ mRNA levels)) [nM] | IC50 ([6]; decrease in MYB canonical junction (CJ) mRNA, RT-qPCR, read-out: MYB CJ IC50) [nM] | AC50 ([6]; increase in MYB alternative junction (AJ) mRNA, RT-qPCR, read-out: MYB AJ AC50) [nM] | IC50 ([7]; decrease in HTT canonical junction (CJ) mRNA, RT-qPCR, read-out: HTT CJ IC50) [nM] | AC50 ([7]; increase in HTT alternative junction (AJ) mRNA, RT-qPCR, read-out: HTT AJ AC50) [nM] | IC50 ([7]; Table 5 panel, canonical junction qPCR, compound concentration having 50% response in CJ decrease, read-out: HTT IC50 (decrease in CJ mRNA levels)) [nM] | IC50 [8] [nM]
1 | Cc1nc2c(C)cc(-c3cc(O)c4c(=O)n(C5CCNC6(CC6)C5)ncc4c3)cc2o1 (stereo not shown) [Compound 564] | 100 to 1000 | 100 to 1000 | 100 to 1000 | 100 to 1000 | – | – | – | – | – | – | – | –
2 | Cc1cn2cc(-c3ncc4c(=O)n(C5CCNCC5)ccc4n3)cc(F)c2n1 [Compound 1213, 2-(8-fluoro-2-methylimidazo[1,2-a]pyridin-6-yl)-6-(piperidin-4-yl)pyrido[4,3-d]pyrimidin-5(6H)-one] | 100 to 1000 | 100 to 1000 | 100 to 1000 | 100 to 1000 | – | – | – | – | – | – | – | –
3 | Cn1cc2cc(-c3ccc4c(=O)n(C5CCNCC5)ccc4n3)c(O)c(F)c2n1 [Compound 1226] | < 100 | < 100 | < 100 | < 100 | – | – | – | – | – | – | – | –
4 | Cc1cn2nc(-c3cc(F)c4c(=O)n(C5CCNCC5)cnc4c3)cc(C#N)c2n1 [Compound 501] | < 100 | < 100 | < 100 | 100 to 1000 | – | – | – | – | – | – | – | –
5 | Cc1cn2c(n1)CCC(c1cc(F)c3c(=O)n(C4CCNCC4)cnc3c1)C2 (stereo not shown) [Compound 502, 5-fluoro-7-{2-methyl-5H,6H,7H,8H-imidazo[1,2-a]pyridin-6-yl}-3-(piperidin-4-yl)quinazolin-4-one] | > 10000 | > 10000 | > 10000 | > 10000 | – | – | – | – | – | – | – | –
6 | COc1c(-c2cc3ccn(C4CCNCC4)c(=O)c3cn2)cc2cn(C)nc2c1C [Compound 1218] | > 10000 | > 10000 | > 10000 | > 10000 | – | – | – | – | – | – | – | –
7 | Cc1c(O)c(-c2ncc3c(=O)n([C@H]4CC[C@H](N)C4)ccc3n2)cc2cn(C)nc12 [Compound 1334] | 1000 to 10000 | 100 to 1000 | 100 to 1000 | 100 to 1000 | – | – | – | – | – | – | – | –
8 | COc1c(-c2ccc3c(=O)n(C4CCNCC4)cnc3n2)cc2cn(C)nc2c1C [Compound 506, 7-(6-methoxy-2,7-dimethylindazol-5-yl)-3-(piperidin-4-yl)pyrido[2,3-d]pyrimidin-4-one] | > 10000 | > 10000 | > 10000 | > 10000 | – | – | – | – | – | – | – | –
9 | Cc1cn2cc(-c3cc(O)c4c(=O)n(C5CCNC5)cnc4c3)cc(C#N)c2n1 (stereo not shown) [Compound 507, 6-[5-hydroxy-4-oxo-3-(pyrrolidin-3-yl)quinazolin-7-yl]-2-methylimidazo[1,2-a]pyridine-8-carbonitrile; trifluoroacetic acid] | 1000 to 10000 | 1000 to 10000 | > 10000 | 1000 to 10000 | – | – | – | – | – | – | – | –
10 | Cc1c(O)c(-c2ncc3c(=O)n(C45CCC(N)(C4)C5)ccc3n2)cc2cn(C)nc12 [Compound 1324] | 1000 to 10000 | 100 to 1000 | 1000 to 10000 | 100 to 1000 | – | – | – | – | – | – | – | –
11 | Cc1c(O)c(-c2ncc3c(=O)n(C4CCNCC4)ccc3n2)cc2cn(C)nc12 [Compound 1224] | 100 to 1000 | < 100 | < 100 | < 100 | – | – | – | – | – | – | – | –
12 | Cc1c(O)c(-c2ncc3c(=O)n(C4CCNC(C)C4)ccc3n2)cc2cn(C)nc12 (stereo not shown) [Compound 1320] | 100 to 1000 | < 100 | 100 to 1000 | < 100 | – | – | – | – | – | – | – | –
13 | Cc1cn2nc(-c3cc4ncn(C5CCNCC5)c(=O)c4cc3O)cc(C)c2n1 [Compound 503, 7-{2,8-dimethylimidazo[1,2-b]pyridazin-6-yl}-6-hydroxy-3-(piperidin-4-yl)quinazolin-4-one] | 100 to 1000 | < 100 | < 100 | 1000 to 10000 | – | – | – | – | – | – | – | –
14 | Cc1c(O)c(-c2ccc3c(=O)n(C4CCNCC4)cnc3n2)cc2cn(C)nc12 [Compound 505, 7-(6-hydroxy-2,7-dimethyl-2H-indazol-5-yl)-3-(piperidin-4-yl)pyrido[2,3-d]pyrimidin-4(3H)-one] | 100 to 1000 | 100 to 1000 | 100 to 1000 | 100 to 1000 | – | – | – | – | – | – | – | –
15 | Cc1nc2cc(O)c(-c3ccc4c(=O)n(C5CCNCC5)ccc4n3)cc2o1 [Compound 1237] | < 100 | < 100 | < 100 | < 100 | – | – | – | – | – | – | – | –
16 | Cc1cn2cc(-c3ccc4c(=O)n(C5CCNCC5)ccc4n3)cc(F)c2n1 [Compound 1230, 2-(8-fluoro-2-methylimidazo[1,2-a]pyridin-6-yl)-6-(piperidin-4-yl)-1,6-naphthyridin-5(6H)-one] | 100 to 1000 | < 100 | < 100 | < 100 | – | – | – | – | – | – | – | –
17 | Cc1cn2nc(-c3cc(C)c4c(=O)n([C@@H]5CCNC6(CC6)C5)ncc4c3)cc(C)c2n1 [Compound 468] | < 100 | < 100 | < 100 | 100 to 1000 | – | – | – | – | – | – | – | –
18 | Cc1cn2nc(-c3cc(O)c4c(=O)n([C@H]5CCNC6(CC6)C5)ncc4c3)cc(C)c2n1 [Compound 469] | < 100 | < 100 | < 100 | < 100 | – | – | – | – | – | – | – | –
19 | Cc1cn2nc(-c3ccc4c(=O)c(C5CCNCC5)cn(C)c4c3)cc(C)c2n1 [Compound 590] | 1000 to 10000 | 100 to 1000 | 1000 to 10000 | 1000 to 10000 | – | – | – | – | – | – | – | –
20 | Cc1c(O)c(-c2ncc3c(=O)n([C@H]4C[C@H]5CC[C@@H](C4)N5)ccc3n2)cc2cn(C)nc12 [Compound 1329] | 100 to 1000 | < 100 | 100 to 1000 | 100 to 1000 | – | – | – | – | – | – | – | –
21 | Cc1cn2nc(-c3cc(C)c4c(=O)n([C@H]5CCNC6(CC6)C5)ncc4c3)cc(C)c2n1 [Compound 467] | 100 to 1000 | 100 to 1000 | 100 to 1000 | 1000 to 10000 | – | – | – | – | – | – | – | –
22 | Cn1cc2cc(-c3ccc4c(=O)n([C@H]5CCNC6(CC6)C5)ccc4n3)c(O)cc2n1 [Compound 1245] | < 100 | < 100 | < 100 | 100 to 1000 | – | – | – | – | – | – | – | –
23 | Cc1cn2cc(-c3cc(F)c4c(=O)n(C5CCNC5)cnc4c3)cc(F)c2n1 (stereo not shown) [Compound 344] | > 10000 | – | – | 1000 to 10000 | 1000 to 10000 | 100 to 1000 | 100 to 1000 | 100 to 1000 | 1000 to 10000 | 1000 to 10000 | 1000 to 10000 | < 100
24 | Cn1cc2cc(-c3ccc4c(=O)n(C5CCNCC5)ccc4n3)c(O)cc2n1 [Compound 1239, 2-(6-hydroxy-2-methyl-2H-indazol-5-yl)-6-(piperidin-4-yl)-1,6-naphthyridin-5(6H)-one] | < 100 | < 100 | < 100 | < 100 | – | – | – | – | – | – | – | –
25 | Cn1cc2nc(-c3cc(F)c4c(=O)n(C5CCNC6(CC6)C5)ncc4c3)ccc2n1 (stereo not shown) [Compound 563] | 100 to 1000 | 100 to 1000 | 100 to 1000 | 100 to 1000 | – | – | – | – | – | – | – | –
